According to patent publication US5817640A (Gensia Pharmaceuticals, priority 1995, dated 1998):
Entries after “also recorded” stand apart in the source; their conditions may differ.

Tests used:
[1] = Uric acid monitoring, Phase 3 CABG trial; type: in vivo, human; conditions: treated patients, data not shown
Text: The uric acid concentrations of all patients in the study were monitored.

[2] = tested on: patients undergoing coronary artery bypass graft (CABG) surgery; test: Difficulty in weaning from cardiopulmonary bypass (Phase 2); type: in vivo, human; conditions: for Weaning time (cross-clamp removal to termination of bypass): in min (unit assumed); for Weaning difficulty: balloon pump, number of patients / Weaning difficulty: return to bypass, number of patients: placebo 1, p=0.6; for Weaning difficulty: pacemaker, number of patients: placebo 2; for Weaning difficulty: pacemaker, number of patients / Weaning difficulty: other, number of patients / Weaning difficulty: other / Weaning difficulty: pacemaker: p=0.7; for Weaning difficulty: other, number of patients: placebo 5; for Weaning difficulty: vasopressors, number of patients / Weaning difficulty: vasopressors: p=0.19; for Patients with any difficulty weaning, number: placebo 13; for Weaning difficulty: other / Weaning difficulty: pacemaker: placebo […]
Procedure: During surgery, anesthesia was maintained by continuous infusion of fentanyl and midazolam. Routine clinical parameters were recorded using standard operating room monitoring equipment. Continuous 2-lead Holter ECG and TEE data were recorded. Standard surgical procedures (e.g., aorta cross-clamping, crystalloid cardioplegia, cardio-pulmonary bypass, hypothermia) were used. Anastomoses were constructed, aorta cross-clamp removed and patients were discontinued from bypass when body temperature was 37° C. The quality of anastomosis was judged by the surgeon. Difficulty in weaning from bypass was judged by need for one or more of the following: pacemaker, return to bypass, balloon pump or vasopressor administration. Hemodynamic measurements, including heart rate, arterial blood pressure, pulmonary capillary wedge pressure and cardiac output, were recorded before sternotomy, 15 and 30 min after bypass and upon chest closure. Radial artery and pulmonary artery pressures, myocardial and whole body temperature, O2 saturation, end-tidal CO2 and arterial blood gases were measured, and ECG recordings were obtained as clinically indicated. Hemodynamic variables (blood pressure, heart rate, pulmonary capillary wedge pressure) were controlled within 20% of baseline using prescribed regimens.
The incidence of adverse clinical outcomes, such as cardiac death (death of patient attributable to primarily cardiac causes, non-fatal transmural MI (as measured by the appearance of a new Q-wave on 12-lead ECG plus a CK-MB value of ≥50 units), non-transmural MI (CK-MB value of ≥50 units), congestive heart failure (low cardiac output requiring intra-aortic balloon pump or left ventricular assist device) or life-threatening dysrhythmia (ventricular fibrillation, or ventricular tachycardia requiring cardioversion or drug treatment) was compared between the placebo and treatment groups. For the diagnosis of myocardial infarction, ECG tracings and CK-MB values were assessed centrally by observers blinded to treatment. The difficulty of weaning the patient from bypass, if any, was compared between placebo and treatment groups by noting need for one or more of the following: pacemaker, return to bypass, balloon pump or use of vasopressors.
8. Difficulty in Weaning. Patients were considered to have difficulty in weaning if they needed one or more of the following interventions: pacemaker, return to bypass, balloon pump or use of vasopressors. The number of patients receiving each of the above interventions was analyzed using a X^2 and Fisher's exact test, as was the number of patients classified as having difficulty in weaning. In addition, the time to weaning (defined as time from cross-clamp removal to end of bypass) in the patients experiencing difficulty were compared by a 1-way analysis of variance.
As noted, patients were determined as being difficult to remove from cardiopulmonary bypass if they required one or more of the following interventions: insertion of a pacemaker, return to bypass, use of a balloon pump or administration of vasopressors, or another intervention which the investigation determines is indicative of difficulty in weaning. […] When a combination of the high and low dose groups were compared to placebo (Table 9b), the reduced need for vasopressor support approached statistical significance (p=0.08). […] There were no differences in any of the weaning difficulty parameters discussed above between the high and low dose groups (Table 9c).

Q: With `NC(=O)c1ncn([C@@H]2O[C@H](CO)[C@@H](O)[C@H]2O)c1N` [AICA riboside, 5-amino-1-β-D-ribofuranosyl-imidazole-4-carboxamide] as the molecule, how does the Crystalluria [1] read?
A: no clinically significant crystalluria

Q: What about the “Plasma uric acid concentrations vs normal range” value [1] of the same molecule?
A: generally remained in, or close to, the normal range

Q: What about the “Uric acid concentrations, dose relation” value [1] of the same molecule?
A: clear dose related increase in uric acid concentrations

Q: And the “Weaning time (cross-clamp removal to termination of bypass)” value (shortened to “Weaning time”) ([2]; 0.05 mg/kg/min, n=41, all patients, placebo 23 +/- 2.9)?
A: 20 +/- 2.2

Q: What about the “Weaning difficulty: balloon pump, number of patients” value ([2]; 0.05 mg/kg/min, n=41) of the same molecule?
A: 0 patients

Q: And the “Weaning difficulty: return to bypass, number of patients” value ([2]; 0.05 mg/kg/min, n=41)?
A: 0 patients

Q: What about the “Weaning difficulty: pacemaker, number of patients” value ([2]; 0.05 mg/kg/min, n=41) of the same molecule?
A: 4 patients

Q: What about the “Weaning difficulty: other, number of patients” value ([2]; 0.05 mg/kg/min, n=41) of the same molecule?
A: 3 patients

Q: And the “Weaning difficulty: vasopressors, number of patients” value ([2]; 0.05 mg/kg/min, n=41, placebo 8)?
A: 3 patients

Q: What about the “Patients with any difficulty weaning, number” value ([2]; 0.05 mg/kg/min, n=41, p=0.17) of the same molecule?
A: 7 patients

Q: What about the “Weaning difficulty: vasopressors” value ([2]; 0.05 mg/kg/min, n=41, placebo 21.6%) of the same molecule?
A: 7.3%

Q: What about the “Patients with any difficulty weaning” value ([2]; 0.05 mg/kg/min, n=41, placebo 35%, p=0.17) of the same molecule?
A: 17%

Q: And the “Weaning difficulty: other” value ([2]; 0.05 mg/kg/min, n=41)?
A: 7.3%

Q: And the “Weaning difficulty: pacemaker” value ([2]; 0.05 mg/kg/min, n=41)?
A: 9.8%

Q: And the “Weaning time” value ([2]; 0.05 mg/kg/min, patients with difficulty, placebo 31.8 +/- 6.3)?
A: 20 +/- 4.6

Q: What about the “Weaning time” value ([2]; 0.1 mg/kg/min, n=34, all patients, placebo 23 +/- 2.9) of the same molecule?
A: 17 +/- 1.8

Q: What about the “Weaning difficulty: balloon pump, number of patients” value ([2]; 0.10 mg/kg/min, n=35) of the same molecule?
A: 0 patients

Q: And the “Weaning difficulty: return to bypass, number of patients” value ([2]; 0.10 mg/kg/min, n=35)?
A: 0 patients

Q: What about the “Weaning difficulty: pacemaker, number of patients” value ([2]; 0.10 mg/kg/min, n=35) of the same molecule?
A: 4 patients

Q: What about the “Weaning difficulty: other, number of patients” value ([2]; 0.10 mg/kg/min, n=35) of the same molecule?
A: 4 patients

Q: What about the “Weaning difficulty: vasopressors, number of patients” value ([2]; 0.10 mg/kg/min, n=35, placebo 8) of the same molecule?
A: 4 patients

Q: What about the “Patients with any difficulty weaning, number” value ([2]; 0.10 mg/kg/min, n=35, p=0.17) of the same molecule?
A: 8 patients

Q: And the “Weaning difficulty: vasopressors” value ([2]; 0.10 mg/kg/min, n=35, placebo 21.6%)?
A: 11.4%

Q: And the “Patients with any difficulty weaning” value ([2]; 0.10 mg/kg/min, n=35, placebo 35%, p=0.17)?
A: 23%

Q: And the “Weaning difficulty: other” value ([2]; 0.10 mg/kg/min, n=35)?
A: 11.4%

Q: And the “Weaning difficulty: pacemaker” value ([2]; 0.10 mg/kg/min, n=35)?
A: 11.4%

Q: And the “Weaning time” value ([2]; 0.1 mg/kg/min, patients with difficulty, placebo 31.8 +/- 6.3)?
A: 20.8 +/- 4.2

Q: What about the “Patients with any difficulty weaning, number” value ([2]; 0.05 + 0.10 mg/kg/min combined, n=76, p=0.06) of the same molecule?
A: 15 patients

Q: And the “Patients with any difficulty weaning” value ([2]; 0.05 + 0.10 mg/kg/min combined, n=76, placebo 35.1%, p=0.06)?
A: 19.7%

Q: And the “Vasopressors required, number of patients” value ([2]; 0.05 + 0.10 mg/kg/min combined, placebo 8, p=0.08)?
A: 7 patients

Q: What about the Vasopressors required ([2]; 0.05 + 0.10 mg/kg/min combined, placebo 21.6%, p=0.08) of the same molecule?
A: 9.2%

Q: And the “Need for vasopressor support vs placebo” value ([2]; low and high dose groups, p=0.19 separately, p=0.08 combined)?
A: strong trend towards a reduced need for vasopressor support; also recorded: less likely to receive vasopressor assistance

Q: And the “Weaning difficulty vs placebo” value ([2]; p=0.17 when compared separately, p=0.06 combined dose groups)?
A: towards a reduction in weaning difficulty in the drug treated groups
